A word on the TGI: it is the concentration at which net growth stops. What is called GI50 is the concentration giving 50% growth inhibition.

Test systems include T-47D breast; A498 renal; MDA-MB-435; U251 CNS; DU-145 prostate; SK-MEL-2 melanoma; NCI-H522 lung; MOLT-4 leukemia; EKVX NSCLC; MDA-N; SNB-75 CNS.
Common to all, as to experiment: DTP human tumour cell line panel, 48 h

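The compound was tested at five concentrations on cells cultured in 96-well plates, with a 48-hour exposure period. Abbreviation: GI50, concentration required for 50% inhibition of growth. TGI denotes the concentration required for complete inhibition of growth.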

Consider `CCOC(=O)C1=C(C)N(Cc2ccc(Cl)cc2Cl)C2(O)C(OC)CC(=O)C3C(=O)N(c4ccccc4)C(=O)C132` (configuration not stated), for which the TGI in the assay with T-47D breast came to 2.57 µM; in the assay with A498 renal it was 22.7 µM; in the assay with MDA-MB-435, 11.8 µM; with U251 CNS it was 3.69 µM; in the assay on DU-145 prostate, 2.75 µM; in the assay with SK-MEL-2 melanoma, 7.01 µM. The TGI in the assay with NCI-H522 lung came to 7.56 µM; in the assay on MOLT-4 leukemia, 7.82 µM; in the assay with EKVX NSCLC, 16.7 µM.
On to `C[C@@H]1O[C@@H]2OCC[C@@H]2C2=C1C(=O)c1ccccc1C2=O`, for which the TGI in the assay with T-47D breast is 31.9 µM; in the assay with A498 renal it was 32.4 µM; in the assay with MDA-MB-435, 3.69 µM; with U251 CNS, 29.5 µM; in the assay with DU-145 prostate, 21 µM; in the assay on SK-MEL-2 melanoma it was 25.7 µM. Moreover, the TGI in the assay with NCI-H522 lung was 20.3 µM; in the assay on MOLT-4 leukemia it was over 100 µM; with MDA-N, 3.35 µM; with SNB-75 CNS, 41.9 µM; in the assay on EKVX NSCLC it was 39.9 µM.
For the compound `Cc1ccc(NCCN(C)CC(C)O)c2c(=O)c3ccc(Cl)cc3sc12` (configuration not stated), the GI50 with A498 renal was 2310 nM; in the assay with U251 CNS, 3.68 µM; in the assay on DU-145 prostate, 3750 nM; with SNB-75 CNS, 6.65 µM. The TGI was 8.37 µM with A498 renal, over 100 µM in the assay on U251 CNS, over 100 µM in the assay with DU-145 prostate and over 100 µM in the assay on SNB-75 CNS.
Take `N=c1nc(N)nc(N)n1-c1ccc(S(N)(=O)=O)cc1`: the TGI with T-47D breast, in the assay with A498 renal, in the assay with MDA-MB-435, with U251 CNS, in the assay on DU-145 prostate and with SK-MEL-2 melanoma was over 100 µM each time. In addition, the TGI in the assay on NCI-H522 lung, in the assay on MOLT-4 leukemia, with MDA-N and in the assay with EKVX NSCLC was over 100 µM in each case.
As for `CC(=O)NC1C(OCc2ccccc2)OC(CO)C(O)C1OCC(=O)NC(C)C(=O)NC(CCC(=O)OCCNC(=O)c1cccc2cc3ccccc3nc12)C(N)=O` (configuration not stated), the TGI is 54.6 µM in the assay with T-47D breast; 42.4 µM in the assay with MDA-MB-435; 53.5 µM in the assay with U251 CNS; 26.6 µM with DU-145 prostate; 70.9 µM with SK-MEL-2 melanoma; 34 µM in the assay on NCI-H522 lung. For the same compound, the TGI with MOLT-4 leukemia is over 100 µM; in the assay with MDA-N it was over 100 µM; in the assay with SNB-75 CNS it was 51.1 µM; in the assay on EKVX NSCLC, 62.2 µM.
Regarding `CCOC(=O)C1=C(C)N2CCCOC2(C)C(C(=O)OC)C1c1cccc([N+](=O)[O-])c1` (configuration not stated), the total growth inhibition concentration (TGI) with SK-MEL-2 melanoma was over 100 µM; in the assay on MOLT-4 leukemia it was over 100 µM; with SNB-75 CNS it was 75.8 µM; in the assay on EKVX NSCLC, over 100 µM.
On to `Cc1c2ccccc2nc2[nH]c3ccncc3c12`, for which the TGI with T-47D breast, in the assay with A498 renal, with MDA-MB-435, in the assay with U251 CNS, in the assay on DU-145 prostate and in the assay on SK-MEL-2 melanoma was over 100 µM in each case. Further, the TGI in the assay on NCI-H522 lung is over 100 µM; in the assay on MOLT-4 leukemia it was over 100 µM; in the assay on MDA-N it was over 100 µM; with SNB-75 CNS, over 100 µM; with EKVX NSCLC it was 98.5 µM.
For `NC(Cc1ccc2oc3cc(=O)c4ccccc4c-3nc2c1)C(=O)O` (configuration not stated), the TGI with T-47D breast is over 84.7 µM; with A498 renal it was over 84.6 µM; in the assay on MDA-MB-435 it was 12.2 µM; in the assay on U251 CNS, over 87.1 µM; in the assay on DU-145 prostate, 32 µM; with SK-MEL-2 melanoma it was 74.3 µM. Also, the TGI was 77.7 µM in the assay with NCI-H522 lung; over 88.3 µM in the assay on MOLT-4 leukemia; 14.8 µM in the assay with MDA-N; 29.7 µM with SNB-75 CNS; over 100 µM in the assay on EKVX NSCLC.
As to `CN(C)CCNc1ccc2nnn3c4ccc(Cl)cc4c(=O)c1c23`, the TGI with T-47D breast amounted to 49.2 µM; with A498 renal, 11.3 µM; in the assay on MDA-MB-435, 18.8 µM; in the assay with U251 CNS, 6.72 µM; in the assay on DU-145 prostate, 26.2 µM; in the assay with SK-MEL-2 melanoma it was 16.8 µM. For the same compound, the TGI in the assay with NCI-H522 lung was found to be 17.5 µM; in the assay on MOLT-4 leukemia it was 13.3 µM; with MDA-N it was 16.9 µM; in the assay with SNB-75 CNS it was 9.78 µM; in the assay on EKVX NSCLC it was 22.2 µM.
Take `COc1cc2c(cc1O)CCN[C@@]21CS[C@H]2c3c(OC(C)=O)c(C)c4c(c3C(COC1=O)N1C2C2c3c(cc(C)c(OC)c3O)CC([C@@H]1O)N2C)OCO4` (some centres not stated): the TGI is over 1 µM in the assay on T-47D breast, 0.00604 µM in the assay on MDA-MB-435, 0.00273 µM with NCI-H522 lung and 0.0108 µM in the assay on MDA-N. Also, the GI50 was 2.19 nM with MDA-MB-435; 4.62 nM in the assay on DU-145 prostate; 0.953 nM in the assay with NCI-H522 lung; under 1 pM with MOLT-4 leukemia; 2.47 nM with MDA-N.
`O=S(=O)(O)c1cc(O)c2c(O)c(N=Nc3ccc(/C=C/c4ccc(N=Nc5c(S(=O)(=O)O)cc6cc(S(=O)(=O)O)cc(O)c6c5O)cc4S(=O)(=O)O)c(S(=O)(=O)O)c3)c(S(=O)(=O)O)cc2c1`: the TGI with A498 renal, in the assay on U251 CNS, with SK-MEL-2 melanoma, in the assay with NCI-H522 lung, in the assay on MOLT-4 leukemia and with SNB-75 CNS was over 100 µM in each case. Moreover, the TGI with EKVX NSCLC was over 100 µM.
As to `N=C(N)SC1c2ccccc2-c2cc([N+](=O)[O-])ccc21` (configuration not stated), the TGI with T-47D breast was 16.2 µM; in the assay on A498 renal it was 14.6 µM; in the assay on MDA-MB-435, 4.26 µM; in the assay with U251 CNS it was 8.95 µM; in the assay on DU-145 prostate, 15.9 µM; in the assay with SK-MEL-2 melanoma it was 13.9 µM. In addition, the TGI stood at 6.47 µM in the assay on NCI-H522 lung; 17.5 µM in the assay on MOLT-4 leukemia; 10.9 µM with MDA-N; 5.7 µM with SNB-75 CNS; 29 µM in the assay with EKVX NSCLC.

For the origin of these results see PubChem BioAssay (NCI).
